Results reported in paper PMC10501326, “A Phase I Study of the Pan-Notch Inhibitor CB-103 for Patients with Advanced Adenoid Cystic Carcinoma and Other Tumors” (Cancer Research Communications, 2023).
Several values for one entry are separate records, joined by “and”; a condition that tells them apart may be missing. Identical values can stand only once.

Assay: Phase I/II safety and tolerability: DLTs and treatment-related adverse events (CTCAE v4.03)
Assay type: in vivo
From the text: The study was an open-label, nonrandomized, phase I/II dose-escalation study with planned expansion cohorts. […] Part B was a potential expansion phase at the MTD/RP2D to determine preliminary evidence of antitumor activity and to confirm safety among patients stratified by preselected cancer indications.
Part A was based on a two-parameter Bayesian logistic regression model (BLRM) to investigate safety and tolerability of sequentially enrolled dose cohorts of 3–6 patients. The first 2 participants of each cohort were enrolled in a staggered approach with at least 1 day apart between first dosing.
12-lead electrocardiograms and Holter safety monitoring with periodic cardiac imaging was employed. Efficacy assessments used RECIST v1.1 applied to CT/MRI scans performed at screening and every 8 weeks; or evaluated complete remission with complete hematologic recovery by National Comprehensive Cancer Network guideline criteria for T-ALL/T-LBL. Adherence to study drug administration was evaluated using both patient diaries and capsule counts.
Secondary endpoints included assessment of clinical benefit rate [CBR; defined as achieving complete and/or partial response and/or stable disease (SD) at prespecified benchmarks], duration of response, progression-free survival (PFS) and overall survival (OS), and plasma pharmacokinetics.
The SS was the primary population for all safety and efficacy analyses, except for determination of dose-DLT relationship.
Under this model, and accounting for dropouts and some additional patients enrolled to each cohort, approximately 55 patients were anticipated to enroll in dose escalation and approximately 45 patients in the confirmatory phase. […] All statistical analyses were analyzed using SAS v9.4 software.

[1] = N = 79, per-patient, CTCAE v4.03

## CC(C)(C)c1ccc(Oc2ccc(N)cn2)cc1 [CB-103]
12 dose-escalation cohorts (n = 64)
  Number of DLTs observed: Two
5 days on, 2 days off weekly
  Recommended phase II dose (RP2D): 500 mg twice daily
CH8 522 mg QD, N=4
  N DLT: 1
CH11 400 mg BID, 5/2, N=6
  N DLT: 1
N = 79
  Grade 4 TRAE elevated lipase: ^aThe two TRAEs classified as grade 4 were elevated lipase (one event) and elevated liver function tests (one event).
  Grade 4 TRAE elevated liver function tests: ^aThe two TRAEs classified as grade 4 were elevated lipase (one event) and elevated liver function tests (one event).
[1]
  TRAE Anemia, any grade: 13 (16) N (%)
  TRAE Anemia, grade 1–2: 9 (11) N (%)
  TRAE Anemia, grade 3: 4 (5) N (%)
  TRAE Any AE, any grade: 60 (76) N (%)
  TRAE Any AE, grade 1–2: 47 (60) N (%)
  TRAE Any AE, grade 3: 13 (16) N (%)
  TRAE Any AE, grade 4: 2 (3) N (%)
  TRAE Blood and lymphatic system disorders, any grade: 13 (17) N (%)
  TRAE Blood and lymphatic system disorders, grade 1–2: 9 (11) N (%)
  TRAE Blood and lymphatic system disorders, grade 3: 4 (5) N (%)
  TRAE Diarrhea, any grade: 10 (13) N (%)
  TRAE Diarrhea, grade 1–2: 10 (13) N (%)
  TRAE Dyschromatopsia, any grade: 15 (19) N (%)
  TRAE Dyschromatopsia, grade 1–2: 15 (19) N (%)
  TRAE Dyspepsia, any grade: 10 (13) N (%)
  TRAE Dyspepsia, grade 1–2: 10 (13) N (%)
  TRAE Eye disorders, any grade: 37 (47) N (%)
  TRAE Eye disorders, grade 1–2: 36 (46) N (%)
  TRAE Eye disorders, grade 3: 1 (1) N (%)
  TRAE Fatigue, any grade: 9 (11) N (%)
  TRAE Fatigue, grade 1–2: 9 (11) N (%)
  TRAE Gastrointestinal disorders, any grade: 39 (49) N (%)
  TRAE Gastrointestinal disorders, grade 1–2: 38 (48) N (%)
  TRAE Gastrointestinal disorders, grade 3: 1 (1) N (%)
  TRAE General disorders and administration site conditions, grade 1–2: 9 (11) N (%)
  TRAE General disorders and administration site conditions, grade 3: 1 (1) N (%)
  TRAE Laboratory investigations, any grade: 13 (16) N (%)
  TRAE Laboratory investigations, grade 1–2: 8 (10) N (%)
  TRAE Laboratory investigations, grade 3: 5 (6) N (%)
  TRAE Nausea, any grade: 17 (22) N (%)
  TRAE Nausea, grade 1–2: 17 (22) N (%)
  TRAE Skin and subcutaneous tissue disorders, any grade: 8 (10) N (%)
  TRAE Skin and subcutaneous tissue disorders, grade 1–2: 6 (8) N (%)
  TRAE Skin and subcutaneous tissue disorders, grade 3: 2 (3) N (%)
  TRAE Vision blurred, any grade: 12 (15) N (%)
  TRAE Vision blurred, grade 1–2: 12 (15) N (%)
  TRAE Visual impairment, any grade: 8 (10) N (%)
  TRAE Visual impairment, grade 1–2: 7 (9) N (%)
  TRAE Visual impairment, grade 3: 1 (1) N (%)
  TRAE Vomiting, any grade: 9 (11) N (%)
  TRAE Vomiting, grade 1–2: 8 (10) N (%)
  TRAE Vomiting, grade 3: 1 (1) N (%)
SS population (n = 79)
  Grade 3 or 4 TRAEs, number reported: 26
All patients
  Patients who interrupted or required dose adjustment: 32 patients (%)
Cohort 8 (552 mg daily dose)
  DLT: patients with asymptomatic grade 3 elevation in gamma-glutamyl transferase leading to drug discontinuation: 1 patient
Cohort 11 (400 mg twice daily, 5 days on and 2 off each week), dose interruption, continued at reduced dose
  DLT observed in cohort 11: grade 3 visual impairment
Dose escalation up to 500 mg twice daily 5/2
  MTD: not reached
In vivo
  Resumed at the dose prior to interruption: 81 % of the time
N = 79
  Deaths related to study treatment: no drug-related deaths
  Grade 3–4 TRAE anemia: 7 events
  Grade 3–4 TRAE elevated liver function tests: 5 events
  Grade 3–4 TRAE elevated serum amylase or lipase: 3 events
  Patients with grade 3–4 TRAEs: 15 patients (%) and 15 (19%) patients (%)
range: 1–14
  Median duration of interruption for TRAEs: 5 days
